Experimental data from ChEMBL document CHEMBL4152360 (Bioorg Med Chem, 2018).
Activity calls are given as the source filed them. The calls are words filed in the database; no cut-off is given here.

Columns and labels:
[1] = biological target: Serine/threonine-protein kinase 3 (Homo sapiens) (UniProt Q13188); assay: Inhibition of human MST2 assessed as enzyme residual activity at 100 nM by radiometric filter binding assay relative to control
[2] = biological target: Serine/threonine-protein kinase PAK 4 (Homo sapiens) (UniProt O96013); assay: Inhibition of human PAK4 assessed as enzyme residual activity at 100 nM by radiometric filter binding assay relative to control
[3] = biological target: Serine/threonine-protein kinase Sgk1 (Homo sapiens) (UniProt O00141); assay: Inhibition of human SGK1 assessed as enzyme residual activity at 100 nM by radiometric filter binding assay relative to control
[4] = biological target: Receptor tyrosine-protein kinase erbB-4 (Homo sapiens) (UniProt Q15303); assay: Inhibition of human HER4 assessed as enzyme residual activity at 100 nM by radiometric filter binding assay relative to control
[5] = biological target: Ephrin type-A receptor 2 (Homo sapiens) (UniProt P29317); assay: Inhibition of human EPHA2 assessed as enzyme residual activity at 100 nM by radiometric filter binding assay relative to control
[6] = biological target: Myosin light chain kinase, smooth muscle (Homo sapiens) (UniProt Q15746); assay: Inhibition of human SmMLCK assessed as enzyme residual activity at 100 nM by radiometric filter binding assay relative to control
[7] = biological target: Ribosomal protein S6 kinase alpha-5 (Homo sapiens) (UniProt O75582); assay: Inhibition of human MSK1 assessed as enzyme residual activity at 100 nM by radiometric filter binding assay relative to control
[8] = biological target: Eukaryotic elongation factor 2 kinase (Homo sapiens) (UniProt O00418); assay: Inhibition of human EF2K assessed as enzyme residual activity at 100 nM by radiometric filter binding assay relative to control
[9] = biological target: Calcium/calmodulin-dependent protein kinase type 1 (Homo sapiens) (UniProt Q14012); assay: Inhibition of human CaMK1alpha assessed as enzyme residual activity at 100 nM by radiometric filter binding assay relative to control
[10] = biological target: Mitogen-activated protein kinase 8 (Homo sapiens) (UniProt P45983); assay: Inhibition of human JNK1 assessed as enzyme residual activity at 100 nM by radiometric filter binding assay relative to control
[11] = biological target: Receptor-interacting serine/threonine-protein kinase 2 (Homo sapiens) (UniProt O43353); assay: Inhibition of human RIPK2 assessed as enzyme residual activity at 100 nM by radiometric filter binding assay relative to control
[12] = biological target: Casein kinase I isoform delta (Homo sapiens) (UniProt P48730); assay: Inhibition of human CK1delta assessed as enzyme residual activity at 100 nM by radiometric filter binding assay relative to control
[13] = biological target: Proto-oncogene tyrosine-protein kinase Src (Homo sapiens) (UniProt P12931); assay: Inhibition of human SRC assessed as enzyme residual activity at 100 nM by radiometric filter binding assay relative to control
[14] = biological target: Tyrosine-protein kinase JAK3 (Homo sapiens) (UniProt P52333); assay: Inhibition of human JAK3 assessed as enzyme residual activity at 100 nM by radiometric filter binding assay relative to control
[15] = biological target: Glycogen synthase kinase-3 beta (Homo sapiens) (UniProt P49841); assay: Inhibition of human GSK3beta assessed as enzyme residual activity at 100 nM by radiometric filter binding assay relative to control
[16] = biological target: T1, Casein kinase II subunit alpha (Homo sapiens, UniProt P68400); assay: Displacement of 5-TAMRA-labeled ARC-1530 from CK2alpha (unknown origin) (1 to 335 residues) after 15 to 60 mins by luminescence assay
[17] = biological target: Rho-associated protein kinase 2 (Rattus norvegicus) (UniProt Q62868); assay: Inhibition of rat ROCK2 assessed as enzyme residual activity at 100 nM by radiometric filter binding assay relative to control
[18] = biological target: 3-phosphoinositide-dependent protein kinase 1 (Homo sapiens) (UniProt O15530); assay: Inhibition of human PDK1 assessed as enzyme residual activity at 100 nM by radiometric filter binding assay relative to control
[19] = biological target: Calcium/calmodulin-dependent protein kinase kinase 2 (Homo sapiens) (UniProt Q96RR4); assay: Inhibition of human CaMKKbeta assessed as enzyme residual activity at 100 nM by radiometric filter binding assay relative to control
[20] = biological target: Serine/threonine-protein kinase D1 (Homo sapiens) (UniProt Q15139); assay: Inhibition of human PKD1 assessed as enzyme residual activity at 100 nM by radiometric filter binding assay relative to control
[21] = biological target: Proto-oncogene tyrosine-protein kinase LCK (Mus musculus) (UniProt P06240); assay: Inhibition of mouse Lck assessed as enzyme residual activity at 100 nM by radiometric filter binding assay relative to control
[22] = biological target: Aurora kinase B (Homo sapiens) (UniProt Q96GD4); assay: Inhibition of human AurB assessed as enzyme residual activity at 100 nM by radiometric filter binding assay relative to control
[23] = biological target: Serine/threonine-protein kinase pim-1 (Homo sapiens) (UniProt P11309); assay: Inhibition of human PIM1 assessed as enzyme residual activity at 100 nM by radiometric filter binding assay relative to control
[24] = biological target: Homeodomain-interacting protein kinase 2 (Homo sapiens) (UniProt Q9H2X6); assay: Inhibition of human HIPK2 assessed as enzyme residual activity at 100 nM by radiometric filter binding assay relative to control
[25] = biological target: Protein kinase C alpha type (Homo sapiens) (UniProt P17252); assay: Inhibition of human PKCalpha assessed as enzyme residual activity at 100 nM by radiometric filter binding assay relative to control
[26] = biological target: Ribosomal protein S6 kinase alpha-1 (Homo sapiens) (UniProt Q15418); assay: Inhibition of human RSK1 assessed as enzyme residual activity at 100 nM by radiometric filter binding assay relative to control
[27] = biological target: T1, Casein kinase II subunit alpha; assay: Displacement of ARC-1504/ARC-1513-5O from CK2alpha (unknown origin) (1 to 335 residues) assessed as photoluminescence lifetime using non-deoxygenated solution after 15 to 60 mins by luminescence assay
Homo sapiens = species: Homo sapiens; assay: Inhibition of human PKA assessed as enzyme residual activity at 100 nM by radiometric filter binding assay relative to control
[28] = biological target: Dual specificity tyrosine-phosphorylation-regulated kinase 1A (Homo sapiens) (UniProt Q13627); assay: Inhibition of human DYRK1alpha assessed as enzyme residual activity at 100 nM by radiometric filter binding assay relative to control
[29] = biological target: Tyrosine-protein kinase SYK (Homo sapiens) (UniProt P43405); assay: Inhibition of human SYK assessed as enzyme residual activity at 100 nM by radiometric filter binding assay relative to control
[30] = biological target: T1, Casein kinase II subunit alpha; assay: Inhibition of human CK2alpha assessed as enzyme residual activity at 100 nM by radiometric filter binding assay relative to control
[31] = biological target: MAP/microtubule affinity-regulating kinase 3 (Homo sapiens) (UniProt P27448); assay: Inhibition of human MARK3 assessed as enzyme residual activity at 100 nM by radiometric filter binding assay relative to control
[32] = biological target: Tyrosine-protein kinase BTK (Homo sapiens) (UniProt Q06187); assay: Inhibition of human BTK assessed as enzyme residual activity at 100 nM by radiometric filter binding assay relative to control

T1 sequence (P68400 whole entry, looked up, the tested form may be a part): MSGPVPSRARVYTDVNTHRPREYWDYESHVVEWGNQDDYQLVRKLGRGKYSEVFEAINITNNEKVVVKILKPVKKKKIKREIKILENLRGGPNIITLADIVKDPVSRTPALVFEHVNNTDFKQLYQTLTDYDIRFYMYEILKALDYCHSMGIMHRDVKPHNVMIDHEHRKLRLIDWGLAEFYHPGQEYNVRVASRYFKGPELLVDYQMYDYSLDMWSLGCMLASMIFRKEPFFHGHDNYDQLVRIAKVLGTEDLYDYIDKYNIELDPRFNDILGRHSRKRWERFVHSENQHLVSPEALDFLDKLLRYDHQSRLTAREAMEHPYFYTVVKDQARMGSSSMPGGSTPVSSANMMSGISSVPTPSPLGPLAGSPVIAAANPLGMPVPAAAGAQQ
Calcium/calmodulin-dependent protein kinase kinase 2 (Homo sapiens), sequence (Q96RR4 2-588 limits assumed): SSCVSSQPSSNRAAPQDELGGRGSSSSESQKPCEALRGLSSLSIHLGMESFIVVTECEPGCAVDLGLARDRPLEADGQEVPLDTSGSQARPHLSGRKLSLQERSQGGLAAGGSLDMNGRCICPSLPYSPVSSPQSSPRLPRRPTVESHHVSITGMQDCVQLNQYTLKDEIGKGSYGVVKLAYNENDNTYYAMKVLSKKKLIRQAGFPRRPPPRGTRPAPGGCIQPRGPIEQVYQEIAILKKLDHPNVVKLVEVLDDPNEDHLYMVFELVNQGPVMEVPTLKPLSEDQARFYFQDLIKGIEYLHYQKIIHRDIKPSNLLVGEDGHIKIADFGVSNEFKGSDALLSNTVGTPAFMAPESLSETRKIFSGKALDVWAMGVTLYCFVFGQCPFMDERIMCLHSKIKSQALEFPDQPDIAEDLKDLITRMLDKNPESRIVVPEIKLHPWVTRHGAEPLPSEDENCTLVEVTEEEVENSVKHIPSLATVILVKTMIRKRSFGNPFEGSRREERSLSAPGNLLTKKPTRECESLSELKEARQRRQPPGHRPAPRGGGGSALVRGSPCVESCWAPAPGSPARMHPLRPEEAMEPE
Rho-associated protein kinase 2 (Rattus norvegicus), sequence (Q62868 whole entry, looked up): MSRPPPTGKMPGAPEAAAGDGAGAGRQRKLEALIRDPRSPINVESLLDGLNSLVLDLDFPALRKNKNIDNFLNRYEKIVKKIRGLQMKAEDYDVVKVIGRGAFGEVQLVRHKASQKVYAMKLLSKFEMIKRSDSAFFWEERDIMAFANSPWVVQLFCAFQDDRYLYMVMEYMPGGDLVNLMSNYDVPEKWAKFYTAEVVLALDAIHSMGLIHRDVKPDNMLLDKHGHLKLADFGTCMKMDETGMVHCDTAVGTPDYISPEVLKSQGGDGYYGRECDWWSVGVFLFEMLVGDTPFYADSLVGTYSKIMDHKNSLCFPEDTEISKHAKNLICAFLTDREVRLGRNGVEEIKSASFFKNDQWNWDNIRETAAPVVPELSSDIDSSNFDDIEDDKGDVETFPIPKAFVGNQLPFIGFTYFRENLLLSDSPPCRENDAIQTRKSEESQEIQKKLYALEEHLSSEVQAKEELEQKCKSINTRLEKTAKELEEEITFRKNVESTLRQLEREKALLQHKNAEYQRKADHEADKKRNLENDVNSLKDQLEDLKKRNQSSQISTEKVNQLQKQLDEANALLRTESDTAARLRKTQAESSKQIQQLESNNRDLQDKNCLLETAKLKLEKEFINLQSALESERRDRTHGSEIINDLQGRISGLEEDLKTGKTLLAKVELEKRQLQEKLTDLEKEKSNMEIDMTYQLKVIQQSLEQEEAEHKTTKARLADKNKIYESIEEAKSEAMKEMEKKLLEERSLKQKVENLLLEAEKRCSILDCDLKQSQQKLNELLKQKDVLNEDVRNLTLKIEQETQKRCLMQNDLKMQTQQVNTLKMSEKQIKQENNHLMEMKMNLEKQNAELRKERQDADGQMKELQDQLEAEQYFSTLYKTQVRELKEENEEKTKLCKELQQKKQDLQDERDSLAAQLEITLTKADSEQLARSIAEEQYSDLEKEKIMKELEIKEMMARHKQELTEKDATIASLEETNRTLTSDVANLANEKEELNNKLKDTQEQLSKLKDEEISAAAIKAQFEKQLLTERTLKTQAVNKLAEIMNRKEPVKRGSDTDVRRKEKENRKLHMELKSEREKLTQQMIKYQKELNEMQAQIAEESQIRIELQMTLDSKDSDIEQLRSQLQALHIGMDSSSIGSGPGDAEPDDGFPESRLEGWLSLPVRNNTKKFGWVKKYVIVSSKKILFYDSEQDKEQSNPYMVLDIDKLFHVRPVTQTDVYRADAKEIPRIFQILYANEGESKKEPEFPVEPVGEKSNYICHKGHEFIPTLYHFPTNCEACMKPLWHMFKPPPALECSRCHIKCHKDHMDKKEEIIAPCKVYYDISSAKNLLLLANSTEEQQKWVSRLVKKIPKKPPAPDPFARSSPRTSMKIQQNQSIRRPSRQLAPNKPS
Aurora kinase B (Homo sapiens), sequence (Q96GD4 whole entry): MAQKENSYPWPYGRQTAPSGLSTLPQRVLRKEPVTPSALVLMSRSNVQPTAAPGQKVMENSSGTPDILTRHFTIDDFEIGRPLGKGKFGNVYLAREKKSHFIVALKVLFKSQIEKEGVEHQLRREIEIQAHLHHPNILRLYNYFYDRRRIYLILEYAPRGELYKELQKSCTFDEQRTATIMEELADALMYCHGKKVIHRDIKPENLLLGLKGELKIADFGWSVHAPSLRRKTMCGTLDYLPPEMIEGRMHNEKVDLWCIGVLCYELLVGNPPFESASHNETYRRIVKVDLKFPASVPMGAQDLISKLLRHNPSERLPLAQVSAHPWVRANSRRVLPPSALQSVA
Calcium/calmodulin-dependent protein kinase type 1 (Homo sapiens), sequence (Q14012 whole entry, looked up): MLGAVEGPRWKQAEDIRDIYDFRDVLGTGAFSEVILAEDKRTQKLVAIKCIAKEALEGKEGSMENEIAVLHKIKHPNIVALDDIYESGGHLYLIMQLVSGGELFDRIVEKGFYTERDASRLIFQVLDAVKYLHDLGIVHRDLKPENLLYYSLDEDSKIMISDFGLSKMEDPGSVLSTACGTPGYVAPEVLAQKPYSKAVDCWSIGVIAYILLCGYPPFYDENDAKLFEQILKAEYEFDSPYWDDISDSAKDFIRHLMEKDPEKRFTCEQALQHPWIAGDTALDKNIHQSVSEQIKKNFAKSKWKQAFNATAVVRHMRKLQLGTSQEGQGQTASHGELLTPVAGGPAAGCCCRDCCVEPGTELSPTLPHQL
Myosin light chain kinase, smooth muscle (Homo sapiens), sequence (Q15746 whole entry): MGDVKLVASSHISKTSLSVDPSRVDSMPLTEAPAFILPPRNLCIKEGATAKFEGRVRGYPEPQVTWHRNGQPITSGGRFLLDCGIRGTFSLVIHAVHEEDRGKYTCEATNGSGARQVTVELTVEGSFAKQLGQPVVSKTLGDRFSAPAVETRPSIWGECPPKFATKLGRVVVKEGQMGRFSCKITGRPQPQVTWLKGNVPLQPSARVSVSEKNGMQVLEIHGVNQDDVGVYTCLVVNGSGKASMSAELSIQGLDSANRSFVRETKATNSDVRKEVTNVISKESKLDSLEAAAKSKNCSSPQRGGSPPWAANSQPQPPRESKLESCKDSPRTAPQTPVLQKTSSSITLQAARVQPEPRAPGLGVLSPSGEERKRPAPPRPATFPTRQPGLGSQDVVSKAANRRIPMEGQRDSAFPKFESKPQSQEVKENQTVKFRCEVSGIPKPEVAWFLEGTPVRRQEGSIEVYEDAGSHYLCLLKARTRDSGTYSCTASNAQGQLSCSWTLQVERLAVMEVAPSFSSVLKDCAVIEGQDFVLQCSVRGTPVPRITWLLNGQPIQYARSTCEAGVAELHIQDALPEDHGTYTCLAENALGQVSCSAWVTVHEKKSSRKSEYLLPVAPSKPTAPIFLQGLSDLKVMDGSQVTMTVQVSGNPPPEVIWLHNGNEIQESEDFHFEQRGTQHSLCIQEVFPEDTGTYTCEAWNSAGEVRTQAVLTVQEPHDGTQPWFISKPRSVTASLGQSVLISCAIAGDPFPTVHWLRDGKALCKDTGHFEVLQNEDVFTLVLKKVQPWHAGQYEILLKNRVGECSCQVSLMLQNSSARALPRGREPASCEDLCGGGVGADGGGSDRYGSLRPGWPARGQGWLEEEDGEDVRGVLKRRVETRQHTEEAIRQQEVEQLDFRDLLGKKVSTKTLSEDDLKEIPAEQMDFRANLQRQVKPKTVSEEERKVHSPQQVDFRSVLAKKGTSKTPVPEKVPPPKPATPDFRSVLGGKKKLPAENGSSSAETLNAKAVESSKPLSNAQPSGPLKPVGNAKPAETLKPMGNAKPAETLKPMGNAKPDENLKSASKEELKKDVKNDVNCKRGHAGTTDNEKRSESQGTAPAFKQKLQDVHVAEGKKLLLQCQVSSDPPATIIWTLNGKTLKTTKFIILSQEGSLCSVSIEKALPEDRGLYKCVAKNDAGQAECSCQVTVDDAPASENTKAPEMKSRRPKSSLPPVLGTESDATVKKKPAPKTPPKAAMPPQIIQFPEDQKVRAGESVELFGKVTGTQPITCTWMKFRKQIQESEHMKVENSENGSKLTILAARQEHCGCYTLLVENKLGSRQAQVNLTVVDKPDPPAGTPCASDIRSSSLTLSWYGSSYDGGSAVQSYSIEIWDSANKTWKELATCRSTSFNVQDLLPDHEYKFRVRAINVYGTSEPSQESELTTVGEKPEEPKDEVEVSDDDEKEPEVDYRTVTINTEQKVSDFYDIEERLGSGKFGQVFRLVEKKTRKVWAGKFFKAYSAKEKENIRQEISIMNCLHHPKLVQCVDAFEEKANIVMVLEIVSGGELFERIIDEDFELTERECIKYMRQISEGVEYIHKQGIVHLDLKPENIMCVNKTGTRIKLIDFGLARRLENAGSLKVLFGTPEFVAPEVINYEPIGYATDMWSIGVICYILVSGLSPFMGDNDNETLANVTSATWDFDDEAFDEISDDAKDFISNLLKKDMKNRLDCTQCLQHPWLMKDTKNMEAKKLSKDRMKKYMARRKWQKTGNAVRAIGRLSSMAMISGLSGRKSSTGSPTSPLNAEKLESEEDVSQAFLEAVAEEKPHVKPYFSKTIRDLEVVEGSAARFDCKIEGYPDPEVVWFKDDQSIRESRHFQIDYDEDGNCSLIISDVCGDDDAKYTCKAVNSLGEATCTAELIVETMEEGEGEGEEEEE

NCCCC[C@@H](NC(=O)[C@@H](CC(=O)O)NC(=O)[C@@H](CC(=O)O)NC(=O)[C@@H](CC(=O)O)NC(=O)[C@@H](CC(=O)O)NC(=O)[C@@H](CC(=O)O)NC(=O)[C@@H](CC(=O)O)NC(=O)CCCCCNC(=O)CCC(=O)Nc1ncc(-c2ccc(C(=O)O)cc2)s1)C(=O)O
Activity [1]: 101%
Activity [2]: 101%
Activity [3]: 97%
Activity [4]: 113%
Activity [5]: 107%
Activity [6]: 68%
Activity [7]: 115%
Activity [8]: 106%
Activity [9]: 111%
Activity [10]: 86%
Activity [11]: 85%
Activity [12]: 107%
Activity [13]: 103%
Activity [14]: 85%
Activity [15]: 19%
Activity [16]: Active
Activity [17]: 96.5%
Activity [18]: 111%
Activity [19]: 120%
Activity [20]: 117%
Activity [21]: 101%
Activity [22]: 129%
Activity [23]: 91%
Activity [24]: 23%
Activity [25]: 95%
Activity [26]: 101%
Time [27]: 82 microsec
Activity (Homo sapiens): 92%
Activity [28]: 11.5%
Activity [29]: 122%
Activity [30]: 1.9%
Activity [31]: 99%
Activity [32]: 99%
